Measured values: EP3578378B1, “RECORDING MEDIUM AND METHOD FOR PRODUCING RECORDING MEDIUM” (CANON KABUSHIKI KAISHA, priority 2018, dated 2019)
Converted amounts (≈) assume the structure as drawn.

Test: Solubility of compound (B) in water at 20°C (10.0 g sample in 100 mL ion-exchange water, undissolved or recrystallized sample weighed)
Format: physicochemical
Conditions: stirred at 80°C for one hour, cooled to 20°C, more than 10.0 g/100 mL if completely dissolved
Description: The method for measuring this solubility is as follows.
First, 10.0 g of a sample to be measured is added to 100 mL of ion-exchange water, and the resulting mixture is stirred at 80°C for one hour to dissolve the sample. Next, the resulting solution in which the sample is dissolved is cooled to 20°C. The sample that remains without being dissolved or is recrystallized is collected, and the weight thereof is determined. […] Crosslinking Agent

Compound | solubility thermodynamic at 1 h [mg/mL] | Solubility in water at 20°C [g/100 mL]
Oc1ccc(O)c(O)c1 [1,2,4-Trihydroxybenzene, 1,2,4-trihydroxybenzene, reference compound] | > 100 | –
[Cl-].[Cl-].[O]=[Zr+2] [ZrOCl2, reference compound] | – | >10
O=C(O)/C=C/C(=O)O [Fumaric acid, fumaric acid] | – | 0.5
O=C(O)c1cc(C(=O)O)cc(C(=O)O)c1 [Trimesic acid, trimesic acid] | – | 0.5
O=C(O)c1cc(C(=O)O)c(C(=O)O)cc1C(=O)O [Pyromellitic acid, pyromellitic acid] | 15 (≈ 59 mM) | –
O=C(O)/C=C\C(=O)O [Maleic acid, maleic acid, reference compound] | – | >10.0
O=C(O)c1cc(O)c(O)c(O)c1 [Gallic acid, gallic acid] | – | 1.0
O=C(O)c1cccc(C(=O)O)c1C(=O)O [Hemimellitic acid, hemimellitic acid] | – | 2.0
NC(=O)/C=C/C(N)=O [Fumaramide, fumaramide] | – | 0.2
NC(=O)c1cc(C(N)=O)cc(C(N)=O)c1 [Trimesamide, trimesamide] | – | 0.2
CC(=O)[O-].CC(=O)[O-].[O-2].[Zr+4] [ZrO(C2H3O2)2, reference compound] | – | >10
O=C(O)c1ccc(C(=O)O)c(C(=O)O)c1 [Trimellitic acid, trimellitic acid] | – | 2.0
